The values that follow come from patent US20240109881A1, “Heteroaryl Compounds as Ligand Directed Degraders of IRAK4” (Bristol-Myers Squibb Company, priority 2022, published 2024).

In the assay the target is T1, IRAK4 (Homo sapiens, UniProt Q9NWZ3).
T1 construct: endogenous in cells; host or cells: THP-1 cells
T1 sequence (Q9NWZ3 1-460): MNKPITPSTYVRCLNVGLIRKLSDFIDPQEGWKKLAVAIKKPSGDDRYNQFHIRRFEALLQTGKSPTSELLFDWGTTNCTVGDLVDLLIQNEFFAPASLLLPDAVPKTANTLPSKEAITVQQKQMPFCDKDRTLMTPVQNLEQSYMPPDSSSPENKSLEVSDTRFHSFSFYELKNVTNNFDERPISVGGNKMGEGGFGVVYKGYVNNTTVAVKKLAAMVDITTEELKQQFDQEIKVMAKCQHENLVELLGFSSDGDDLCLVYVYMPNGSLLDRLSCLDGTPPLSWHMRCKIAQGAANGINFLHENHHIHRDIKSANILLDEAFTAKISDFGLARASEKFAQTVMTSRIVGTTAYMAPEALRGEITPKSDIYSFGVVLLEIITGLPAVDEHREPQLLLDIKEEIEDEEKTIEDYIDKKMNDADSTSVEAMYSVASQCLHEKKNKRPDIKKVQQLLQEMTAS
Briefly: LVL THP1 HTRF (THP1 Homogeneous Time Resolved Fluorescence). It is filed as cell-based. As to conditions: THP1 cells, 18 h incubation with compound; for DC50: read-out: LVL THP1 HTRF EC50. The method in brief: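 IRAK4 HTRF read-out (665/615 nm ratio, anti-IRAK4 d2 acceptor and K donor, 18 h dark incubation at room temperature) on lysates of THP-1 cells. Cells were treated 18 h at 37° C. with 20 nL compound in DMSO, in colorless RPMI with 10% FBS, with a duplicate CTG plate.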
(In general: Time-resolved FRET reads energy transfer from a long-lived donor to a nearby acceptor.)

Take `C[C@H](C#N)Nc1cc(-n2ncc3cc(C#N)c(N)nc32)ncc1-n1cc([C@H]2CC[C@H](CCN3[C@@H](C)CN(c4ccc([C@@]5(C)CCC(=O)NC5=O)cn4)C[C@@H]3C)CC2)nn1` (single isomer, unassigned) [P-254]: the “LVL THP1 HTRF YMIN” value is given as 91.0% and the DC50 stood at 0.0217 µM.

With `C[C@H](C#N)Nc1cc(-n2ncc3cncnc32)ncc1-n1cc([C@H]2CC[C@H](CCN3CCN(c4ccc(C5CCC(=O)NC5=O)cc4)CC3)CC2)nn1` (stereo partly shown) [P-218], the DC50 is 0.006 µM.

`CC(C#N)Nc1cc(-n2ncc3cc(C#N)cnc32)ncc1-n1cc(C2CCC(C(F)CN3CCN(c4ccc(C5CCC(=O)NC5=O)cc4)CC3)CC2)nn1` (stereo not shown) [P-198]: the “LVL THP1 HTRF YMIN” value is given as 1.2% and the DC50 amounted to 0.01 µM.

Turning to `C[C@H](C#N)Nc1cc(-n2ncc3cnc(N)nc32)ncc1-n1cc(C2CCC(CCN3CCN(c4ccc([C@@]5(C)CCC(=O)NC5=O)cc4)CC3)CC2)nn1` (stereo partly shown) [P-228], the “LVL THP1 HTRF YMIN” value stood at 3.6%.

Take `C[C@H](C#N)Nc1cc(Nc2ccc(C#N)cn2)ncc1-n1cc([C@H]2CC[C@H](CCN3CCN(c4ccc([C@@]5(C)CCC(=O)NC5=O)cc4)CC3)CC2)nn1` [P-298]: the “LVL THP1 HTRF YMIN” value is 3.2% and the DC50 is 0.0827 µM.

Take `C[C@H](C#N)Nc1cc(-n2ncc3cc(C#N)c(N)nc32)ncc1-n1cc([C@H]2CC[C@H](CCN3CCN(c4ccc([C@@]5(C)CCC(=O)NC5=O)cn4)[C@H](C)C3)CC2)nn1` (single isomer, unassigned) [P-262]: the “LVL THP1 HTRF YMIN” value is on record as 8.7% and the DC50 turned out to be 0.0171 µM.

Take `C[C@H](C#N)Nc1cc(-n2ncc3cc(C#N)cnc32)ncc1-n1cc([C@H]2CC[C@H](CCN3CCC(c4ccc([C@@]5(C)CCC(=O)NC5=O)cc4)CC3)CC2)nn1` [P-233]: the DC50 worked out at 0.008 µM.

In the case of `CC[C@H]1CN(CC[C@H]2CC[C@H](c3cn(-c4cnc(-n5ncc6cc(C#N)cnc65)cc4N[C@H](C)C#N)nn3)CC2)CCN1c1ccc(N2CCC(=O)NC2=O)cc1` [P-445], the “LVL THP1 HTRF YMIN” value was found to be 4.0% and the DC50 was 0.0658 µM.

On to `C[C@H](C#N)Nc1cc(-n2ncc3cc(C#N)cnc32)ncc1C(=O)N[C@H]1CC[C@H](CCN2CC[C@H]3[C@@H]2CCN3c2ccc([C@@]3(C)CCC(=O)NC3=O)cc2)CC1` (single isomer, unassigned) [P-492], for which the “LVL THP1 HTRF YMIN” value is −0.2% and the DC50 is 0.035 µM.

Take `C[C@H](C#N)Nc1cc(-n2ncc3cc(C#N)cnc32)ncc1-n1cc(C2CCC(CCN3CCN(c4ccc([C@@]5(C)CCC(=O)NC5=O)cc4)[C@@H](C)C3)CC2)nn1` (stereo partly shown) [P-241]: the “LVL THP1 HTRF YMIN” value is listed as 3.5% and the DC50 was determined as 0.039 µM.

`C[C@H](C#N)Nc1cc(-n2ncc3cc(C#N)cnc32)ncc1-n1cc([C@H]2CC[C@H](CCN3CCN(c4ccc(N5CCC(=O)NC5=O)cc4F)CC3)CC2)nn1` [P-367]: the “LVL THP1 HTRF YMIN” value was 7.9% and the DC50 was 0.116 µM.

For the molecule `COc1cc(N2CCN(CC[C@H]3CC[C@H](c4cn(-c5cnc(-n6ncc7cc(C#N)cnc76)cc5N[C@H](C)C#N)nn4)CC3)CC2)ccc1N1CCC(=O)NC1=O` [P-443], the “LVL THP1 HTRF YMIN” value is given as −0.6% and the DC50 is 0.0045 µM.

Turning to `C[C@H](C#N)Nc1cc(-n2ncc3cc(C#N)cnc32)ncc1-n1cc([C@H]2CC[C@H](CCN3CC[C@H]4[C@@H]3CCN4c3ccc(C4CCC(=O)NC4=O)cc3)CC2)nn1` (single isomer, unassigned) [P-327], the “LVL THP1 HTRF YMIN” value worked out at 2.2% and the DC50 worked out at 0.0028 µM.

`C[C@@H]1CN(CCC2CCC(c3cn(-c4cnc(-n5ncc6cc(C#N)cnc65)cc4NC4(C#N)CC4)nn3)CC2)[C@@H](C)CN1c1ccc([C@@]2(C)CCC(=O)NC2=O)cc1` (stereo partly shown) [P-240]: the “LVL THP1 HTRF YMIN” value was found to be 14.5% and the DC50 amounted to 0.297 µM.

For `C[C@H](C#N)Nc1cc(-n2ncc3cc(C#N)cnc32)ncc1-n1cc([C@H]2CC[C@H](CCN3CCN(c4ccc(N5CCC(=O)NC5=O)c(F)c4)CC3)CC2)nn1` [P-365], the “LVL THP1 HTRF YMIN” value is 2.0% and the DC50 was found to be 0.0023 µM.

`C[C@H](C#N)Nc1cc(Nc2ncc(C#N)cc2Cl)ncc1-n1cc([C@H]2CC[C@H](CCN3CCN(c4ccc(N5CCC(=O)NC5=O)cn4)[C@H](C)C3)CC2)nn1` [P-455]: the “LVL THP1 HTRF YMIN” value is −5.9% and the DC50 is 0.0078 µM.

`C[C@H](C#N)Nc1cc(-c2ccc3cc(C#N)cnn23)ncc1-n1cc([C@H]2CC[C@H](CCN3CCN(c4ccc([C@@]5(C)CCC(=O)NC5=O)cc4)CC3)CC2)nn1` [P-230]: the DC50 stood at 0.007 µM.

As to `C[C@H](C#N)Nc1cc(-n2ncc3cc(C#N)cnc32)ncc1-n1cc([C@H]2CC[C@H](CCN3CCN(c4cccc5c(N6CCC(=O)NC6=O)nn(C)c45)CC3)CC2)nn1` [P-362], the “LVL THP1 HTRF YMIN” value is reported as 14.9% and the DC50 turned out to be 0.238 µM.

Consider `C[C@H](C#N)Nc1cc(-n2ncc3cc(C#N)c(N)nc32)ncc1-n1cc(C2CCC(CCN3CCC(c4ccc(C5CCC(=O)NC5=O)cc4)CC3)CC2)nn1` (stereo partly shown) [P-214], for which the “LVL THP1 HTRF YMIN” value was below 0.5%.

For `C[C@H](C#N)Nc1cc(-n2ncc3cc(C#N)cnc32)ncc1-n1cc([C@H]2CC[C@H](CCN3CCC(c4cn(C5CCC(=O)NC5=O)nn4)CC3)CC2)nn1` (stereo partly shown) [P-344], the “LVL THP1 HTRF YMIN” value is 8.9% and the DC50 is 0.0912 µM.

For `C[C@H](C#N)Nc1cc(-n2ncc3cc(C#N)cnc32)ncc1-n1cc(C2CCC(CCN3CCN(c4ccc([C@]5(C)CCC(=O)NC5=O)cc4)CC3)CC2)nn1` (stereo partly shown) [P-210], the “LVL THP1 HTRF YMIN” value is given as above 95.0% and the DC50 was found to be 0.015 µM.

`C[C@H](C#N)Nc1cc(-n2ncc3cc(C#N)cnc32)ncc1-n1cc([C@H]2CC[C@H](CCN3CC[C@H]4[C@@H]3CCN4c3ccc(N4CCC(=O)NC4=O)c(Cl)c3)CC2)nn1` (single isomer, unassigned) [P-464]: the “LVL THP1 HTRF YMIN” value is listed as −7.1% and the DC50 worked out at 0.0007 µM.

On to `C[C@H](C#N)Nc1cc(-n2ncc3cc(C#N)cnc32)ncc1-n1cc([C@H]2CC[C@H](CCN3CCN(c4ccc(N5CCC(=O)NC5=O)cn4)CC3)CC2)nn1` [P-371], for which the “LVL THP1 HTRF YMIN” value is reported as 4.1% and the DC50 was 0.0087 µM.

Turning to `C[C@H](C#N)Nc1cc(N2CCc3cc(C#N)cnc32)ncc1-n1cc([C@H]2CC[C@H](CCN3CCN(c4ccc(N5CCC(=O)NC5=O)cc4)CC3)CC2)nn1` [P-486], the “LVL THP1 HTRF YMIN” value came to 24.9% and the DC50 was 0.2 µM.

On to `C[C@H](C#N)Nc1cc(-n2ncc3cc(C#N)cnc32)ncc1-n1cc([C@H]2CC[C@H](CCN3CC[C@H]4[C@@H]3CCN4c3ccc([C@@]4(C)CCC(=O)NC4=O)nc3)CC2)nn1` (single isomer, unassigned) [P-415], for which the “LVL THP1 HTRF YMIN” value is on record as 37.5% and the DC50 was determined as 0.192 µM.

Take `Cc1cc(N2CCC(=O)NC2=O)ccc1N1CCN(CC[C@H]2CC[C@H](c3cn(-c4cnc(-n5ncc6cc(C#N)cnc65)cc4N[C@H](C)C#N)nn3)CC2)CC1` [P-360]: the “LVL THP1 HTRF YMIN” value amounted to 4.5% and the DC50 stood at 0.0276 µM.

Regarding `C[C@H](C#N)Nc1cc(-n2ncc3cc(C#N)cnc32)ncc1-n1cc([C@H]2CC[C@H](CCN3CCN(c4ccc(N5CCC(=O)NC5=O)cn4)[C@@H](C)C3)CC2)nn1` [P-357], the “LVL THP1 HTRF YMIN” value is listed as 26.7% and the DC50 is 0.179 µM.

Regarding `C[C@H](C#N)Nc1cc(-n2ncc3cc(C#N)cnc32)ncc1-n1cc([C@H]2CC[C@H](CCN3CCC(c4ccc(N5CCC(=O)NC5=O)cc4)C(F)C3)CC2)nn1` (stereo partly shown) [P-399], the “LVL THP1 HTRF YMIN” value came to 8.2% and the DC50 is 0.0431 µM.

Take `C[C@H](C#N)Nc1cc(-n2ncc3cc(C#N)cnc32)ncc1-n1cc(C2CCC(CCN3CCC(c4ccc([C@@]5(C)CCC(=O)NC5=O)cc4)CC3)CC2)nn1` (stereo partly shown) [P-233]: the “LVL THP1 HTRF YMIN” value was 2.8%.

`C[C@H](C#N)Nc1cc(-n2ncc3cc(C#N)cnc32)ncc1-n1cc(C2CCC(O)(CCN3CCN(c4ccc(C5CCC(=O)NC5=O)cc4)CC3)CC2)nn1` (stereo partly shown) [P-227]: the “LVL THP1 HTRF YMIN” value is reported as 3.0% and the DC50 stood at 0.002 µM.

`CC[C@@H]1CN(CC[C@H]2CC[C@H](c3cn(-c4cnc(-n5ncc6cc(C#N)cnc65)cc4N[C@H](C)C#N)nn3)CC2)CCN1c1ccc(C2CCC(=O)NC2=O)cc1` (stereo partly shown) [P-452]: the “LVL THP1 HTRF YMIN” value was found to be 0.5% and the DC50 is 0.0019 µM.

Turning to `CC(C#N)Nc1cc(-n2ncc3cc(C#N)cnc32)ncc1-n1cc(C23CCC(CCN4CCN(c5ccc(C6CCC(=O)NC6=O)cc5)CC4)(CC2)CC3)nn1` (stereo not shown) [P-212], the “LVL THP1 HTRF YMIN” value was 1.5% and the DC50 was 0.003 µM.

As for `N#Cc1cnc2c(cnn2-c2cc(OC3CC3)c(-n3cc([C@H]4CC[C@H](CCN5CCN(c6ccc(C7CCC(=O)NC7=O)cc6)CC5)CC4)nn3)cn2)c1` (stereo partly shown) [P-409], the “LVL THP1 HTRF YMIN” value was 8.3% and the DC50 turned out to be 0.0825 µM.

With `CC1CN(CC[C@H]2CC[C@H](NC(=O)c3cnc(-n4ncc5cc(C#N)cnc54)cc3N[C@H](C)C#N)CC2)CCC1c1ccc([C@@]2(C)CCC(=O)NC2=O)cc1` (stereo partly shown) [P-272], the “LVL THP1 HTRF YMIN” value worked out at 10.2% and the DC50 is 0.0103 µM.

On to `C[C@H](C#N)Nc1cc(-n2ncc3cc(C#N)cnc32)ncc1-n1cc([C@H]2CC[C@H](CCN3CCN(c4ncc(N5CCC(=O)NC5=O)s4)CC3)CC2)nn1` [P-372], for which the “LVL THP1 HTRF YMIN” value came out at 40.1% and the DC50 turned out to be 0.235 µM.
